The record followed here is patent US4499081A, “Peptide compounds” (Nyegaard & Co A/S, priority 1982, dated 1985).

Square brackets hold non-standard residues; d marks the D form. Peptide text beside a SMILES is read from it. pGlu = O=C1CC[C@@H](C(=O)O)N1

One test deals with granulopoiesis. Description: activity as granulopoiesis inhibition factor. The text has this: Due to the minute amounts of the natural granulopoiesis factor available, the structure of the natural substance has not been determined. It has never been obtained in crystalline or completely pure form and it is not known whether this could be achieved using material from natural sources only. In contrast, the peptides of the invention can be obtained in crystalline form suitable for pharmaceutical use and in relatively large quantities, free from contaminating peptides and proteins of natural origin.

Another test deals with myelopoietic system. Description: injection of peptide into mice, effect on hemopoiesis. In kind it is in vivo.
Setting [1] is: injected into mice at a relatively low dose level.
[2] abbreviates: mice, injections at 10^-5 M for six successive days.

On to `NCCCC[C@H](NC(=O)[C@H](CS)NC(=O)[C@H](CC(=O)O)NC(=O)[C@H](CC(=O)O)NC(=O)[C@@H]1CCC(=O)N1)C(=O)O` [pyroGlu-Asp-Asp-Cys-LysOH] ([pGlu]DDCK-OH), for which the granulopoiesis inhibition activity result in the test on granulopoiesis was “inactive”.
Turning to `NCCCC[C@H](NC(=O)[C@H](CS)NC(=O)[C@H](CC(=O)O)NC(=O)[C@H](CCC(=O)O)NC(=O)[C@@H]1CCC(=O)N1)C(=O)O` [Compound (1), L-pyroGlutamyl-L-glutamyl-L-aspartyl-L-cysteinyl-L-lysine] ([pGlu]EDCK-OH), in the test with myelopoietic system (after treatment with the peptide, inhibitory effect reversible, normal cell population overshoots temporarily), the “production of myelopoietic cells after treatment” value is given as “temporarily abnormally increased”. In the test on myelopoietic system (setting [1]), the “effect on other cell lineages deriving from the pluripotent stem cells” value is “not affected”; the “effect on the myelopoietic system (morphologically recognisable cells and committed stem cells)” value is on record as “selective inhibition of the myelopoietic system”. Besides, the “effect on the whole hemopoietic system, including production of lymphocytes” value in the test with myelopoietic system (mice, 10^-5 M for three weeks) is “strong stimulation”. For the same compound, in the test with myelopoietic system (mice, concentration of 10^-7 M in the extracellular fluid, greatest in the mature cells), the peripheral granulocytes entry is recorded as “marked decrease”. Besides, in the test with myelopoietic system (setting [2]), the “pluripotent stem cells and production of erythrocytes” value is “reduced”; the “population of committed stem cells” value is on record as “strong reduction”.
